Test results from patent publication US20230265151A1, “GIP/GLP1 CO-AGONIST COMPOUNDS” (priority 2020, published 2023).
Where two headings read alike, the source gives them in different places. *1 amine or outer side, *2 acyl side, *3 side chain or, on linkers, in order; H or OH if unused. Where a SMILES comes first, the peptide text is derived from it. Side-chain parts run from the residue outwards. [ ]: non-standard residue; d: D form. The star is where a group is joined. Butanoyl(4-(4-tBuPh)) = CC(C)(C)c1ccc(CCCC(=O)*)cc1; αMePhe(2-F) = C[C@](N)(Cc1ccccc1F)C(=O)O; γGlu = O=C(O)[C@H](CCC(=O)[*:2])N[*:1]; αMeY = C[C@](N)(Cc1ccc(O)cc1)C(=O)O; 4Pal = N[C@@H](Cc1ccncc1)C(=O)O; αMeL = CC(C)C[C@](C)(N)C(=O)O; Orn = NCCC[C@H](N)C(=O)O; AEEA = NCCOCCOCC(=O)O; Aib = CC(C)(N)C(=O)O

Legend:
Assay type in all cases: cell-based
hGIPR = target: T1, hGIPR (Homo sapiens, UniProt P48546); assay: Functional cAMP formation (HTRF) in HEK-293 clonal cells expressing hGIPR, 0.1% bovine casein, without or with 1.0% human serum albumin; details: for EC50: geometric mean, read-out: hGIPR EC50, nM (SEM, n); for Emax: read-out: hGIPR Emax, % ± SEM
T1 construct: expressed in transfected cells
T1 sequence (P48546 22-466): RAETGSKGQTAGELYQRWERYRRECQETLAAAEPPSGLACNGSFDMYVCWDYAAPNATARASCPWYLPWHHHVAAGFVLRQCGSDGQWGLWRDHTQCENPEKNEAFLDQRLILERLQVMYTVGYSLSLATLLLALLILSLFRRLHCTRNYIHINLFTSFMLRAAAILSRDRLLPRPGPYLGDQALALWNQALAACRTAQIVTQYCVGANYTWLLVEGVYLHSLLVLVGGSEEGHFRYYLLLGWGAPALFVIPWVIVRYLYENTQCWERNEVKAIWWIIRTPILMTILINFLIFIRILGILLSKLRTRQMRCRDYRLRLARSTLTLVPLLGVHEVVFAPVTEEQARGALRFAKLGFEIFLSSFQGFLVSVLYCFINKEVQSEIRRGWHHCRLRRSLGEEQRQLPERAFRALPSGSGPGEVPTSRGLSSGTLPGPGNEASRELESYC
Method in brief: (§1)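 Readings of the HTRF 665/620 nm ratio, which falls as cAMP rises, were converted to nM cAMP using a standard curve after 30 min peptide exposure at 37° C.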

hGLP-1R = hGLP-1R (Homo sapiens, UniProt P43220); assay: Functional cAMP formation (HTRF) in HEK-293 clonal cells expressing hGLP-1R, 0.1% bovine casein, without or with 1.0% human serum albumin; parameters: expressed in transfected cells; details: for EC50: geometric mean, read-out: hGLP-1R EC50, nM (SEM, n); for Emax: read-out: hGLP-1R Emax, % ± SEM
Sequence of hGLP-1R (P43220 24-463): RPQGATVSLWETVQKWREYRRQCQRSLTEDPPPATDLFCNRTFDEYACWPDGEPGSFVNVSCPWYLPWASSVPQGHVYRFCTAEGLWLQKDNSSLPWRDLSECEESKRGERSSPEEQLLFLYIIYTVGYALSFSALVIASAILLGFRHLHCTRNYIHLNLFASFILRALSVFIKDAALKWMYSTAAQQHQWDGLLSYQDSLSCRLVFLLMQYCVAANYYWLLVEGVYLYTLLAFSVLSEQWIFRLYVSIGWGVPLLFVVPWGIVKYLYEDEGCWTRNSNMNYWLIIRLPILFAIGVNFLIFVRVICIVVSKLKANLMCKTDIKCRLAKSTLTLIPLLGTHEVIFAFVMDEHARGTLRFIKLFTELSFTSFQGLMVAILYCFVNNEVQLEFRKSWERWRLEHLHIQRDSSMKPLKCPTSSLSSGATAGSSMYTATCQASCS
Method in brief: as §1

hGCGR = target: T2, hGCGR (Homo sapiens, UniProt P47871); assay: Functional cAMP formation (HTRF) in HEK-293 clonal cells expressing hGCGR, 0.1% bovine casein, without or with 1.0% human serum albumin; details: geometric mean, read-out: hGCGR EC50, nM (SEM, n)
T2 construct: expressed in transfected cells
T2 sequence (P47871 26-477): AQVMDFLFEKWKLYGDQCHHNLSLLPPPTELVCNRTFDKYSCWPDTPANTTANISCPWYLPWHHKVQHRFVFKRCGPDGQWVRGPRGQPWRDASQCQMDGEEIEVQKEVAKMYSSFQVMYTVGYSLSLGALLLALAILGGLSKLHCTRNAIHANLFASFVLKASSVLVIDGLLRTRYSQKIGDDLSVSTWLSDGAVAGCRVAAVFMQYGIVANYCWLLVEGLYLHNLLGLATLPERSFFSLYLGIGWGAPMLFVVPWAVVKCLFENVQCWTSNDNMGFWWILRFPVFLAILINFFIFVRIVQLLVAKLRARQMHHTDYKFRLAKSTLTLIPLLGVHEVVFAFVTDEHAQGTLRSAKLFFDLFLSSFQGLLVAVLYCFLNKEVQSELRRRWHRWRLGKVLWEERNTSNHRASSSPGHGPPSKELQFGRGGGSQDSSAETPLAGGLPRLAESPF
Method in brief: as §1

[1] = 0.1% bovine casein and 1.0% human serum albumin, 37° C.
[2] = HEK293, 0.1% bovine casein and 1.0% human serum albumin, 37° C., percent of maximal response to GIP(1-42)NH2
[3] = cAMP, incubated at 37° C., 0.1% bovine casein (no human serum albumin)
[4] = HEK293, percent of maximal response to GIP(1-42)NH2, 37° C., 0.1% bovine casein, arithmetic mean
[5] = HEK293, 0.1% bovine casein and 1.0% human serum albumin, 37° C., percent of maximal response to GLP-1(7-36)NH2
[6] = HEK293, percent of maximal response to GLP-1(7-36)NH2, 37° C., 0.1% bovine casein, arithmetic mean

## CC[C@H](C)[C@H](NC(=O)[C@H](CCCN)NC(=O)[C@H](CC(=O)O)NC(=O)[C@H](CC(C)C)NC(=O)[C@](C)(CC(C)C)NC(=O)[C@@H](NC(=O)[C@H](CO)NC(=O)[C@H](Cc1ccncc1)NC(=O)[C@H](CC(=O)O)NC(=O)[C@H](CO)NC(=O)[C@@H](NC(=O)[C@](C)(Cc1ccccc1F)NC(=O)[C@@H](NC(=O)CNC(=O)[C@H](CCC(=O)O)NC(=O)C(C)(C)NC(=O)[C@@H](N)Cc1ccc(O)cc1)[C@@H](C)O)[C@@H](C)O)[C@@H](C)CC)C(=O)N[C@@H](C)C(=O)N[C@@H](CCC(N)=O)C(=O)NC(C)(C)C(=O)N[C@@H](CCCCNC(=O)COCCOCCNC(=O)COCCOCCNC(=O)CC[C@H](NC(=O)CCCc1ccc(C(C)(C)C)cc1)C(=O)O)C(=O)N[C@@H](Cc1ccccc1)C(=O)N[C@H](C(=O)N[C@H](CCC(=O)O)C(=O)N[C@@](C)(Cc1ccc(O)cc1)C(=O)N[C@@H](CC(C)C)C(=O)N[C@H](C(=O)N[C@@H](CCC(=O)O)C(=O)NCC(=O)NCC(=O)N1CCC[C@H]1C(=O)N[C@@H](CO)C(=O)N[C@@H](CO)C(=O)NCC(=O)N[C@@H](C)C(=O)N1CCC[C@H]1C(=O)N1CCC[C@H]1C(=O)N1CCC[C@H]1C(=O)N[C@@H](CO)C(=O)N[C@@H](CCCCNC(=O)COCCOCCNC(=O)COCCOCCNC(=O)CC[C@H](NC(=O)CCCc1ccc(C(C)(C)C)cc1)C(=O)O)C(N)=O)[C@@H](C)CC)[C@@H](C)CC [Example 205]
hGIPR; [1]
  EC50: 0.261 nM
hGIPR; [2]
  Emax: 72.1%
hGIPR; [3]
  EC50: 0.0264 nM
hGLP-1R; [1]
  EC50: 2.18 nM
hGCGR; [1]
  EC50: > 9950 nM
hGCGR; [3]
  EC50: > 9950 nM

## CC[C@H](C)[C@H](NC(=O)[C@H](CCCN)NC(=O)[C@H](CC(=O)O)NC(=O)[C@H](CC(C)C)NC(=O)[C@](C)(CC(C)C)NC(=O)[C@@H](NC(=O)[C@H](CO)NC(=O)[C@H](Cc1ccncc1)NC(=O)[C@H](CC(=O)O)NC(=O)[C@H](CO)NC(=O)[C@@H](NC(=O)[C@](C)(Cc1ccccc1F)NC(=O)[C@@H](NC(=O)CNC(=O)[C@H](CCC(=O)O)NC(=O)C(C)(C)NC(=O)[C@@H](N)Cc1ccc(O)cc1)[C@@H](C)O)[C@@H](C)O)[C@@H](C)CC)C(=O)N[C@@H](C)C(=O)N[C@@H](CCC(N)=O)C(=O)NC(C)(C)C(=O)N[C@@H](CCC(=O)O)C(=O)N[C@@H](Cc1ccccc1)C(=O)N[C@H](C(=O)N[C@H](CCC(=O)O)C(=O)N[C@@](C)(Cc1ccc(O)cc1)C(=O)N[C@@H](CC(C)C)C(=O)N[C@H](C(=O)N[C@@H](CCCCNC(=O)COCCOCCNC(=O)COCCOCCNC(=O)CC[C@H](NC(=O)CCCc1ccc(C(C)(C)C)cc1)C(=O)O)C(=O)NCC(=O)NCC(=O)N1CCC[C@H]1C(=O)N[C@@H](CO)C(=O)N[C@@H](CO)C(=O)NCC(=O)N[C@@H](C)C(=O)N1CCC[C@H]1C(=O)N1CCC[C@H]1C(=O)N1CCC[C@H]1C(=O)N[C@@H](CO)C(=O)N[C@@H](CCCCNC(=O)COCCOCCNC(=O)COCCOCCNC(=O)CC[C@H](NC(=O)CCCc1ccc(C(C)(C)C)cc1)C(=O)O)C(N)=O)[C@@H](C)CC)[C@@H](C)CC [Example 206] (H-Y[Aib]EGT[αMePhe(2-F)]TSD[4Pal]SI[αMeL]LD[Orn]IAQ[Aib]EFI[dE][αMeY]LIK([AEEA-AEEA-γGlu-Butanoyl(4-(4-tBuPh))])GGPSSGAPPPSK([AEEA-AEEA-γGlu-Butanoyl(4-(4-tBuPh))])-NH2)
hGIPR; [1]
  EC50: 0.242 nM
hGIPR; [2]
  Emax: 77.6%
hGIPR; [4]
  Emax: 96.4%
hGIPR; [3]
  EC50: 0.0204 nM
hGLP-1R; [1]
  EC50: 3.03 nM
hGLP-1R; [5]
  Emax: 98.1%
hGLP-1R; [6]
  Emax: 100%
hGLP-1R; [3]
  EC50: 0.299 nM
hGCGR; [1]
  EC50: > 9950 nM
hGCGR; [3]
  EC50: > 9950 nM

## CC[C@H](C)[C@H](NC(=O)[C@H](CC(C)C)NC(=O)[C@](C)(Cc1ccc(O)cc1)NC(=O)[C@@H](CCC(=O)O)NC(=O)[C@@H](NC(=O)[C@H](Cc1ccccc1)NC(=O)[C@H](CCCCNC(=O)COCCOCCNC(=O)CC[C@H](NC(=O)CCCc1ccc(C(C)(C)C)cc1)C(=O)O)NC(=O)C(C)(C)NC(=O)[C@H](CCC(N)=O)NC(=O)[C@H](C)NC(=O)[C@H](CCCCNC(=O)COCCOCCNC(=O)CC[C@H](NC(=O)CCCc1ccc(C(C)(C)C)cc1)C(=O)O)NC(=O)[C@H](CCCN)NC(=O)[C@H](CC(=O)O)NC(=O)[C@H](CC(C)C)NC(=O)[C@](C)(CC(C)C)NC(=O)[C@@H](NC(=O)[C@H](CO)NC(=O)[C@H](Cc1ccncc1)NC(=O)[C@H](CC(=O)O)NC(=O)[C@H](CO)NC(=O)[C@@H](NC(=O)[C@](C)(Cc1ccccc1F)NC(=O)[C@@H](NC(=O)CNC(=O)[C@H](CCC(=O)O)NC(=O)C(C)(C)NC(=O)[C@@H](N)Cc1ccc(O)cc1)[C@@H](C)O)[C@@H](C)O)[C@@H](C)CC)[C@@H](C)CC)C(=O)N[C@@H](CCC(=O)O)C(=O)NCC(=O)NCC(=O)N1CCC[C@H]1C(=O)N[C@@H](CO)C(=O)N[C@@H](CO)C(=O)NCC(=O)N[C@@H](C)C(=O)N1CCC[C@H]1C(=O)N1CCC[C@H]1C(=O)N1CCC[C@H]1C(=O)N[C@@H](CO)C(N)=O [Example 207]
hGIPR; [1]
  EC50: 0.591 nM
hGIPR; [2]
  Emax: 97.9%
hGIPR; [4]
  Emax: 96.2%
hGIPR; [3]
  EC50: 0.019 nM
hGLP-1R; [1]
  EC50: 2.98 nM
hGLP-1R; [5]
  Emax: 112%
hGLP-1R; [6]
  Emax: 95.1%
hGLP-1R; [3]
  EC50: 0.209 nM
hGCGR; [1]
  EC50: > 9950 nM
hGCGR; [3]
  EC50: > 9950 nM

## CC[C@H](C)[C@H](NC(=O)[C@H](CC(C)C)NC(=O)[C@](C)(Cc1ccc(O)cc1)NC(=O)[C@@H](CCC(=O)O)NC(=O)[C@@H](NC(=O)[C@H](Cc1ccccc1)NC(=O)[C@H](CCC(=O)O)NC(=O)C(C)(C)NC(=O)[C@H](CCC(N)=O)NC(=O)[C@H](C)NC(=O)[C@H](CCCCNC(=O)COCCOCCNC(=O)CC[C@H](NC(=O)CCCc1ccc(C(C)(C)C)cc1)C(=O)O)NC(=O)[C@H](CCCN)NC(=O)[C@H](CC(=O)O)NC(=O)[C@H](CC(C)C)NC(=O)[C@](C)(CC(C)C)NC(=O)[C@@H](NC(=O)[C@H](CO)NC(=O)[C@H](Cc1ccncc1)NC(=O)[C@H](CC(=O)O)NC(=O)[C@H](CO)NC(=O)[C@@H](NC(=O)[C@](C)(Cc1ccccc1F)NC(=O)[C@@H](NC(=O)CNC(=O)[C@H](CCC(=O)O)NC(=O)C(C)(C)NC(=O)[C@@H](N)Cc1ccc(O)cc1)[C@@H](C)O)[C@@H](C)O)[C@@H](C)CC)[C@@H](C)CC)C(=O)N[C@@H](CCCCNC(=O)COCCOCCNC(=O)CC[C@H](NC(=O)CCCc1ccc(C(C)(C)C)cc1)C(=O)O)C(=O)NCC(=O)NCC(=O)N1CCC[C@H]1C(=O)N[C@@H](CO)C(=O)N[C@@H](CO)C(=O)NCC(=O)N[C@@H](C)C(=O)N1CCC[C@H]1C(=O)N1CCC[C@H]1C(=O)N1CCC[C@H]1C(=O)N[C@@H](CO)C(N)=O [Example 208]
hGIPR; [1]
  EC50: 0.126 nM
hGIPR; [2]
  Emax: 64.1%
hGIPR; [4]
  Emax: 94.9%
hGIPR; [3]
  EC50: 0.018 nM
hGLP-1R; [1]
  EC50: 1.58 nM
hGCGR; [1]
  EC50: > 9950 nM
hGCGR; [3]
  EC50: > 9950 nM
